Assay results taken from patent US20230130823A1, “PROCESS FOR THE PRODUCTION OF ANTITUMOUR PHARMACEUTICAL COMPOSITIONS USING PUSH-PULL BUTADIENES, COMPOUNDS AND USES THEREOF” (ANHANGUERA EDUCACIONAL PARTICIPAÇÕES S/A, priority 2019, published 2023).
pIC50: −log10 of the molar value. Values after ≈ are worked out from the molar mass of the structure shown. Values joined by “and” are separate entries in the source; they are usually repeats but may differ in a detail not shown here. Equal values may be shown once.

Columns and labels:
CRO2B = assay: In vitro cytotoxicity, CRO2B carcinoid line; type: cell-based; conditions: Homo sapiens, carcinoid, read-out: IC50
BxPC3 = assay: In vitro cytotoxicity, BxPC3 pancreas line; type: cell-based; conditions: Homo sapiens, BXPC-3; BxPC3, pancreas; read-out: IC50
[1] = test system: lines of human carcinoma tested; assay: In vitro cytotoxicity against the panel of human carcinoma lines; conditions: tumor cell lines of human carcinoma tested
Colo205 [2] = assay: Analysis of the cell cycle phases, Colo205; type: cell-based; conditions: for Cell cycle phase (%) G2M: G2/M phase
Text: The compounds of this family were also studied for the distribution of the population of tumor cells in the different phases of the cell cycle: quiescent cells, non-proliferating (G1/G0 phase), which present DNA/RNA synthesis capacity (S phase) and cell division cells (G2/M phase).

HT-29 = assay: In vitro cytotoxicity, HT-29 colon line; type: cell-based; conditions: Homo sapiens; HT-29, colon; read-out: IC50
Colo205 [3] = assay: In vitro cytotoxicity, Colo205 colon line; type: cell-based; conditions: Homo sapiens, COLO 205; Colo205, colon; read-out: IC50
PANC1 = assay: In vitro cytotoxicity, PANC1 pancreas line; type: cell-based; conditions: Homo sapiens, PANC-1; PANC1, pancreas; read-out: IC50
Colo205 [4] = assay: Determination of apoptotic cells (subG1), Colo205, flow cytometry; type: cell-based; conditions: sub-diploid DNA content
Text: Determination of Apoptotic Cells (subG1)-Colo205
In this experiment, the proportion of apoptotic cells was identified, that is, cells showing DNA content below normal (sub-diploid) in flow cytometry testing.

tumor cells line Colo205 = assay: Colo205 cell count; type: cell-based; conditions: compared to cells treated with culture medium only
Method: The compounds were tested for their ability to reduce the number of cells in the tumor, compared to cells treated with culture medium only. In Table 4, the results obtained are shown.

SW620 = assay: In vitro cytotoxicity, SW620 colon line; type: cell-based; conditions: Homo sapiens, SW-620; SW620, colon; read-out: IC50
MIAP2 = assay: In vitro cytotoxicity, MIAP2 pancreas line; type: cell-based; conditions: Homo sapiens; MIAP2, pancreas; read-out: IC50
CaCo2 = assay: In vitro cytotoxicity, CaCo2 colon line; type: cell-based; conditions: Homo sapiens, Caco-2; CaCo2, colon; read-out: IC50
[5] = test system: murine melanoma cells B16F10; assay: MTT cytotoxicity in B16F10 melanoma cells; type: cell-based; conditions: for IC50: Mus musculus, B16-F10, B16F10 melanoma, 24 hours of culture, MTT, read-out: CI50% (the source's name)
Method: The tumor line of murine melanoma B16F10 was donated by the Ludwig-Switzerland Institute. Adherent cell suspensions of B16F10 cells were obtained for all experimental procedures by treating culture flasks with trypsin 0.2% for 5 minutes and inactivated with 10% fetal bovine serum. The detached cells were centrifuged twice, resuspended in supplemented RPMI-1640 medium. The count was performed in Malassez chamber, and the cell concentration was adjusted in 5×10^5 cells/ml, in RPMI-1640 culture medium supplemented with 10% fetal bovine serum and 7 ug polymyxin-B (Sigma Chemical Company, St Louis Mo.-USA).
Cell viability was determined by the Trypan Blue exclusion test, being greater than 95% of viable cells. The cells were grown in plates with 96 well plate flat bottoms (Corning), at a concentration of 2×10^5 cells, maintained for 24 hours in a CO2 oven at 37° C. After this period, the plates were centrifuged for 5 minutes, at 2000 rpm at 4° C., the supernatant discarded and added different concentrations of the compounds, diluted in RPMI-1640 culture medium, supplemented and increased by 7 μg of Polymyxin-B (Sigma Chemical Company). After treatment with the various diluted compounds in complete culture medium, the cells were incubated with 0.5 mg/mL of MTT reactive.
The cell viability test was performed to verify the effect of the various compounds on the various concentrations previously established: on the lines of tumor cells B16F10 and normal human fibroblasts. The MTT method consists of a cell viability test that measures the activity of mitochondrial dehydrogenase. MTT is a colorimetric method based on the capacity of living cells to reduce salt 3-(4,5-di-methylazole-2-IL)-2,5-diphenyl tetrazolium bromide in the formazan product (Mosmann, 1983). After the cells plating (concentration of 1×10^4 per well of the culture plate) in RPMI-1640 medium and 10% SFB medium, they were maintained at 37° C. for periods of 24, 48, 72 and 96 hours. Four hours before the set time was completed, MTT 20 μL (Sigma) was added (final concentration of […]). The plates were kept in the oven for the remaining four hours. After the stipulated time, 180 μL of the supernatant were removed from each well and then added 150 μL of dimethyl sulfoxide (Sigma) homogenizing well for the complete dissolution of the salt crystals formed by the mitochondrial metabolism resulting in a staining.
The 96-well plate was read by the spectrophotometer (Spectra MAX-190) using the wavelength of 570 nm. The results were analyzed by absorbance of each well. The percentage of viability was obtained using the following formula: [(Absorbance of treated cells/Absorbance of untreated cells)×100]. The experiments were carried out in quadruplicate.
The samples of the compounds obtained by synthesis chemistry were diluted in DMSO solution at the final concentration of 10%.

[6] = test system: FN-1 (Normal human fibroblast); assay: Cytotoxicity, normal human fibroblasts; type: cell-based; conditions: fibroblasts
Method: Fragments of cutaneous biopsies from patients treated by the Dermatology Service of the Clinic Hospital of the Medicine School of USP were removed for routine diagnostic procedures and part of the surgical flap edge immersed in Eagle culture medium modified by Dulbecco's (DMEM, Sigma Chemical Co., St. Louis, Mo., USA) added of 10% fetal bovine serum (Cultilab Ltda., Campinas-SP), […] and 50 ng/ml amphotericin B at 4 C and kept at 4 C for a maximum of 16 hours.
The fragments were washed three times in the same solution, cut into fragments of approximately 1 mm^3 and transferred to 25 cm^2 culture flasks, kept at 37 C, humid atmosphere containing 5% CO2. Cell growth monitored daily, photo documented in inversion microscopy and culture medium exchanged every 2 or 3 days, according to cell metabolism.
After 7 days, the first change in the culture medium of the flasks was performed once cell growth started, the culture medium was renewed every three days. Plastic flasks were used for cultivation of 25 cm^2 of cultivated area, where more 3 ml of DME medium containing 10% fetal bovine serum and 1% of antibiotic-antimycotic solution will be added.
The cell viability test was performed to verify the effect of the various compounds on the various concentrations previously established: on the lines of tumor cells B16F10 and normal human fibroblasts. The MTT method consists of a cell viability test that measures the activity of mitochondrial dehydrogenase. MTT is a colorimetric method based on the capacity of living cells to reduce salt 3-(4,5-di-methylazole-2-IL)-2,5-diphenyl tetrazolium bromide in the formazan product (Mosmann, 1983). […]
The 96-well plate was read by the spectrophotometer (Spectra MAX-190) using the wavelength of 570 nm. The results were analyzed by absorbance of each well. The percentage of viability was obtained using the following formula: [(Absorbance of treated cells/Absorbance of untreated cells)×100]. […]

CC(=O)c1ccc(OCC=C(C)C)cc1 [Compound 1, 4-(3-methylbut-2-enyl-oxyi)acetophenone]
pIC50 (CRO2B): 3.18
pIC50 (BxPC3): 3.14
cytotoxic activity (in words) [1]: showed no cytotoxic activity
Cell cycle phase (%) G1/G0 (Colo205 [2]): 48.0 ± 2.54%
Cell cycle phase (%) G2M (Colo205 [2]): 5.0 ± 2.26%
Cell cycle phase (%) S (Colo205 [2]): 47.0 ± 0.28%
pIC50 (HT-29): 3.34
pIC50 (Colo205 [3]): 2.99
pIC50 (PANC1): 3.12
Percentage of cells (apoptotic, subG1) (Colo205 [4]): 5.2 ± 0.566%
Relative number of cells (% ± standard deviation) (tumor cells line Colo205): 70.2 ± 0.339%
pIC50 (SW620): 3.01
pIC50 (MIAP2): 3.08
pIC50 (CaCo2): 3.12

CC(C)=CCOc1ccc(C(C)=C(C#N)C#N)cc1 [Compound 2]
pIC50 (CRO2B): 3.83
pIC50 (BxPC3): 3.80
cytotoxic activity (in words) [1]: exhibited a better cytotoxic activity
Cell cycle phase (%) G1/G0 (Colo205 [2]): 90.0 ± 0.91%
Cell cycle phase (%) G2M (Colo205 [2]): 0.8 ± 0.42%
Cell cycle phase (%) S (Colo205 [2]): 9.15 ± 0.49%
pIC50 (HT-29): 4.04
pIC50 (Colo205 [3]): 3.83
pIC50 (PANC1): 3.75
Percentage of cells (apoptotic, subG1) (Colo205 [4]): 35.7 ± 1.485%
Relative number of cells (% ± standard deviation) (tumor cells line Colo205): 12.7 ± 0.339%
pIC50 (SW620): 3.87
pIC50 (MIAP2): 3.81
pIC50 (CaCo2): 3.79

CCSC(=CC(=C(C#N)C#N)c1ccc(OCC=C(C)C)cc1)SCC [Compound 3]
pIC50 (CRO2B): 5.19
pIC50 (BxPC3): 4.62
cytotoxic activity (in words) [1]: potent cytotoxic activity
pIC50 (HT-29): 5.41
pIC50 (Colo205 [3]): 4.84
pIC50 (PANC1): 4.30
pIC50 (SW620): 4.93
pIC50 (MIAP2): 5.41
pIC50 (CaCo2): 5.09

CC(=O)c1ccccc1C(=O)Oc1ccccc1 [Compound 4, 2-Acetyl Benzoate of Phenyl]
cytotoxic activity (in words) [1]: inactive

N#CC(C#N)=C/C=C(\Cl)c1ccccc1OC(=O)c1ccccc1 [Compound 6, 2-(1-chloro-4,4-dicyano-buta-1,3-dienyl)phenyl Benzoate]
pIC50 (CRO2B): 5.13
pIC50 (BxPC3): 4.56
cytotoxic activity (in words) [1]: potent in vitro activity
Cell cycle phase (%) G1/G0 (Colo205 [2]): 64.3 ± 1.69%
Cell cycle phase (%) G2M (Colo205 [2]): 16.0 ± 0.28%
Cell cycle phase (%) S (Colo205 [2]): 19.7 ± 1.48%
pIC50 (HT-29): 5.35
pIC50 (Colo205 [3]): 4.79
IC50 [5]: 30.6 µg/mL and 91.6 µM
pIC50 (PANC1): 4.24
Percentage of cells (apoptotic, subG1) (Colo205 [4]): 41.8 ± 0.141%
activity against fibroblasts (in words) [6]: significant activity
Relative number of cells (% ± standard deviation) (tumor cells line Colo205): 12.7 ± 0.339%
pIC50 (SW620): 4.87
pIC50 (MIAP2): 5.35
pIC50 (CaCo2): 5.03

O=C(Oc1ccccc1/C(Cl)=C/C=C/[N+](=O)[O-])c1ccccc1 [Compound 7, 2-(1-chloro-4-nitro-buta-1,3-dienyl)phenyl Benzoate]
cytotoxic activity (in words) [1]: little antitumor activity
activity relative to compound 6 ([5]; B16F10, compared with compound 6): almost ten times more active
IC50 [5]: 3.27 µg/mL and 9.93 µM

N#CC(C#N)=C/C=C(\Cl)c1ccc(OC(=O)c2ccccc2)cc1 [Compound 14, 4-(1-chloro-4,4-dicyano-buta-1,3-dienyl)phenyl Benzoate]
IC50 [5]: 168 mg/L (≈ 503 µM)
